#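 Interpolation was linear, between the two tested concentrations surrounding the appropriate level; five concentrations were tested over 48 hours in 96-well plates. Abbreviation: GI50, concentration required for 50% inhibition of growth. TGI is the concentration that stops growth completely.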
# Key:
# Test in all cases: NCI anticancer screen, dose series, 48 h
# SNB-75 CNS = tested on: SNB-75 CNS
# UACC-62 melanoma = tested on: UACC-62 melanoma
# MDA-MB-435 = tested on: MDA-MB-435
# UO-31 renal = tested on: UO-31 renal
# CCRF-CEM leukemia = tested on: CCRF-CEM leukemia
# MCF7 breast = tested on: MCF7 breast
# CAKI-1 renal = tested on: CAKI-1 renal
# LOX IMVI melanoma = tested on: LOX IMVI melanoma
# HOP-62 NSCLC = tested on: HOP-62 NSCLC
# TK-10 renal = tested on: TK-10 renal
SMILES,TGI (SNB-75 CNS),TGI (UACC-62 melanoma),TGI (MDA-MB-435),TGI (UO-31 renal),TGI (CCRF-CEM leukemia),TGI (MCF7 breast),TGI (CAKI-1 renal),TGI (LOX IMVI melanoma),TGI (HOP-62 NSCLC),TGI (TK-10 renal),GI50 (SNB-75 CNS) [µg/mL],GI50 (UACC-62 melanoma) [µg/mL],GI50 (MDA-MB-435) [µg/mL],GI50 (UO-31 renal) [µg/mL],GI50 (CCRF-CEM leukemia) [µg/mL],GI50 (MCF7 breast) [µg/mL],GI50 (CAKI-1 renal) [µg/mL],GI50 (LOX IMVI melanoma) [µg/mL],GI50 (HOP-62 NSCLC) [µg/mL],GI50 (TK-10 renal) [µg/mL]
CCOC(=O)c1csc(NC(=O)C(C)N2CCCC2)n1 (stereo not given),> 100 µM,> 100 µM,> 100 µM,> 100 µM,> 100 µM,> 100 µM,> 100 µM,> 100 µM,> 100 µM,> 100 µM,,,,,,,,,,
O=c1oc2ccccc2c(O)c1Cc1ccc(Cc2c(O)c3ccccc3oc2=O)cc1,> 100 µM,> 100 µM,> 100 µM,> 100 µM,> 100 µM,> 100 µM,> 100 µM,> 100 µM,> 100 µM,> 100 µM,,,,,,,,,,
O=C1NN(C2=NNC3(C(=O)N2)c2ccccc2-c2ccccc23)C(c2ccccc2)=N/C1=C/c1ccc(Cl)cc1,> 150 µg/mL,65.6 µg/mL,> 150 µg/mL,> 150 µg/mL,> 150 µg/mL,144 µg/mL,> 150 µg/mL,> 150 µg/mL,> 150 µg/mL,132 µg/mL,57.2,29.8,44.2,48,52.6,35.8,74.4,56.1,49.1,50.5
